Test results reported in the supplement of paper PMC10307832.

Columns and labels:
Assay in all cases: relative viability (nuclei count vs DMSO), 5 days (fraction); higher = more cells survive
[1] = compound: CN[C@@H]1C[C@H]2O[C@@](C)([C@@H]1OC)n1c3ccccc3c3c4c(c5c6ccccc6n2c5c31)C(=O)NC4 [Staurosporine] + Cc1cc(Nc2cc(N3CCN(C)CC3)nc(Sc3ccc(NC(=O)C4CC4)cc3)n2)n[nH]1 [Tozasertib] (partner 0.1 µM)
Procedure, shortened: (§1)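 Relative viability was taken as the ratio of nuclei in treated wells to nuclei in vehicle wells. Lung cancer cell lines in 1536-well plates received compounds by pin tool one day after seeding, either one drug alone or a fixed anchor-drug dose plus five library-drug doses (not always all listed) in √10 steps. Nuclei were counted on 4× images after 5 days of treatment, and values are medians of duplicate plates.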

[2] = compound: O=c1[nH]cc(F)c(=O)[nH]1 [5-Fluorouracil] + CC(=O)c1c(C)c2cnc(Nc3ccc(N4CCNCC4)cn3)nc2n(C2CCCC2)c1=O [Palbociclib] (partner 0.5 µM)
Procedure, shortened: as §1

[3] = compound: O=c1[nH]cc(F)c(=O)[nH]1 [5-Fluorouracil] + Cc1nc(NC(=O)N2CCC[C@H]2C(N)=O)sc1-c1ccnc(C(C)(C)C(F)(F)F)c1 [Alpelisib] (partner 2 µM)
Procedure, shortened: as §1

[4] = compound: O=c1[nH]cc(F)c(=O)[nH]1 [5-Fluorouracil] + Nc1ncn([C@H]2C[C@H](O)[C@@H](CO)O2)c(=O)n1 [Decitabine] (partner 2 µM)
Procedure, shortened: as §1

Cell Line | relative viability ([1]; first compound 0.005 µM) | relative viability ([1]; first compound 0.05 µM) | relative viability ([1]; first compound 0.1581 µM) | relative viability ([1]; first compound 0.5 µM) | relative viability ([2]; first compound 0.02 µM) | relative viability ([2]; first compound 0.2 µM) | relative viability ([2]; first compound 0.6325 µM) | relative viability ([2]; first compound 2 µM) | relative viability ([3]; first compound 0.02 µM) | relative viability ([3]; first compound 0.2 µM) | relative viability ([3]; first compound 0.6325 µM) | relative viability ([3]; first compound 2 µM) | relative viability ([4]; first compound 0.02 µM) | relative viability ([4]; first compound 0.2 µM) | relative viability ([4]; first compound 0.6325 µM) | relative viability ([4]; first compound 2 µM) | relative viability ([1]; first compound 0.01581 µM)
HCC-366 | 0.144 | 0.0425 | 0.0279 | 0.0464 | 0.404 | 0.332 | 0.154 | 0.0646 | 0.227 | 0.466 | 0.182 | 0.0921 | 0.344 | 0.32 | 0.194 | 0.128 | –
NCI-H2087 | 0.189 | 0.102 | 0.0977 | 0.0926 | 0.234 | 0.243 | 0.164 | 0.179 | 0.977 | 0.923 | 0.659 | 0.536 | 0.244 | 0.295 | 0.271 | 0.224 | 0.206
RERF-LC-KJ | 0.414 | 0.219 | 0.178 | 0.176 | 1.06 | 0.991 | 0.891 | 0.677 | 0.764 | 0.836 | 0.852 | 0.62 | 0.66 | 0.762 | 0.776 | 0.736 | 0.433
HOP-62 | 0.349 | 0.114 | 0.128 | 0.103 | 0.409 | 0.573 | 0.404 | 0.439 | 0.835 | 1.03 | 0.844 | 0.754 | 0.247 | 0.211 | 0.256 | 0.246 | 0.237
NCI-H2126 | 0.658 | 0.348 | 0.247 | 0.226 | 0.348 | 0.29 | 0.299 | 0.274 | 0.668 | 0.337 | 0.274 | 0.272 | 0.518 | 0.306 | 0.28 | 0.258 | 0.494
SW 1573 | 0.153 | 0.119 | 0.0873 | 0.069 | 0.398 | 0.353 | 0.29 | 0.236 | 0.705 | 0.877 | 0.867 | 0.507 | 0.619 | 0.505 | 0.53 | 0.502 | 0.186
NCI-H1793 | 0.335 | 0.299 | 0.182 | 0.186 | 0.285 | 0.299 | 0.274 | 0.243 | 0.673 | 0.658 | 0.543 | 0.493 | 0.617 | 0.469 | 0.487 | 0.557 | –
SK-LU-1 | 0.168 | – | 0.133 | 0.0818 | 0.398 | 0.388 | 0.382 | 0.373 | 0.934 | 1.12 | 0.868 | 0.704 | 0.636 | 0.692 | 0.592 | 0.548 | 0.115
H3255 | 0.504 | 0.203 | 0.239 | 0.145 | 0.291 | 0.317 | 0.305 | 0.296 | 0.721 | 0.816 | 0.833 | 0.496 | 0.694 | 0.629 | 0.645 | 0.488 | 0.337
EMC-BAC-2 | 0.181 | 0.19 | 0.192 | 0.181 | 0.52 | 0.532 | 0.501 | 0.518 | 0.733 | 0.773 | 0.801 | 0.768 | 1.01 | 1.08 | 0.97 | 1.01 | 0.138
NCI-H727 | 0.562 | 0.303 | 0.318 | 0.297 | 0.839 | 0.685 | 0.745 | 0.607 | 0.545 | 0.582 | 0.641 | 0.577 | 0.844 | 0.996 | 0.822 | 0.844 | 0.429
SK-MES-1 | 0.52 | 0.149 | 0.125 | 0.125 | 0.337 | 0.285 | 0.244 | 0.277 | 0.798 | 0.789 | 0.447 | 0.341 | 0.339 | 0.352 | 0.323 | 0.294 | 0.327
NCI-H1355 | 0.577 | 0.252 | 0.188 | 0.151 | 0.41 | 0.364 | 0.241 | 0.207 | 0.716 | 0.551 | 0.372 | 0.286 | 0.332 | 0.332 | 0.26 | 0.245 | 0.286
PC-3 [JPC-3] | 0.919 | 0.512 | 0.321 | 0.344 | 0.562 | 0.582 | 0.576 | 0.509 | 0.913 | 1.04 | 0.838 | 0.708 | 0.851 | 0.873 | 0.779 | 0.75 | 0.598
LK-2 | 0.164 | 0.156 | 0.149 | 0.151 | 0.568 | 0.618 | 0.155 | 0.257 | 1.3 | 0.606 | 0.803 | 0.578 | 0.328 | 0.341 | 0.334 | 0.269 | –
NCI-H1734 | 0.314 | 0.191 | 0.132 | 0.0956 | 0.349 | 0.346 | 0.271 | 0.264 | 0.559 | 0.756 | 0.582 | 0.529 | 0.536 | 0.518 | 0.499 | 0.396 | 0.206
NCI-H441 | 0.392 | 0.231 | 0.195 | 0.208 | 0.238 | 0.264 | 0.178 | 0.249 | 0.792 | 0.644 | 0.563 | 0.411 | 0.252 | 0.226 | 0.254 | 0.26 | 0.379
NCI-H838 | 0.218 | 0.179 | 0.164 | 0.143 | 0.196 | 0.223 | 0.19 | 0.174 | 0.874 | 0.882 | 0.484 | 0.29 | 0.48 | 0.447 | 0.359 | 0.291 | 0.156
NCI-H23 | 0.324 | 0.198 | 0.157 | 0.196 | 0.527 | 0.551 | 0.325 | 0.245 | 0.687 | 0.728 | 0.425 | 0.312 | 0.33 | 0.295 | 0.367 | 0.279 | –
